This is an account of results in patent US10059689B2, “Substituted heteroaryl compounds and methods of use” (Sunshine Lake Pharma Co., Ltd., priority 2014, dated 2018).

The nature of series [1]: Compound stability in rat liver microsomes. In kind it is in vitro ADME. To be noted: for half-life: pH 7.4, 37° C., NADPH, read-out: Rat T1/2; for CLint scaled: pH 7.4, in vivo CLint extrapolated. Here is the method: (§1) Human or rat liver microsomes incubations were conducted in duplicate in polypropylene tubes. The typical incubation mixtures consisted of human or rat liver microsomes (0.5 mg protein/mL), compounds of interest (5 μM) and NADPH (1.0 mM) in a total volume of 200 μL potassium phosphate buffer (PBS, 100 mM, pH 7.4). Compounds were dissolved in DMSO and diluted with PBS such that the final concentration of DMSO was 0.05%. The enzymatic reactions were commenced with the addition of protein after a 3-min preincubation and incubated in a water bath open to the air at 37° C. Reactions were terminated at various time points (0, 5, 10, 15, 30, 60 min) by adding equal volume of ice-cold acetonitrile. The samples were stored at −80° C. until LC/MS/MS assays.
(§2) The concentrations of compounds in the incubation mixtures of human or rat liver microsomes were determined by a LC/MS/MS method. The ranges of the linearity in the concentration range were determined for each tested compounds.
(§3) A parallel incubation was performed using denatured microsomes as the negative control, and reactions were terminated at various time points (0, 15, 60 min) after incubation at 37° C.
(§4) Verapamil (1 μM) was selected as the positive control, and reactions were terminated at various time points (0, 5, 10, 15, 30, 60 min) after incubation at 37° C. Both positive and negative control samples were included in each assay to ensure the integrity of the microsomal incubation system.
(§5) In addition, the stability date of compound in human and rat liver microsomes was also obtained through the following method. Human or rat liver microsomes incubations were conducted in duplicate in polypropylene tubes. The typical incubation mixtures consisted of human or rat liver microsomes (0.5 mg protein/mL), compounds of interest (1.5 μM) and EDTA (1.0 mM) in a total volume of 30 μL potassium phosphate buffer (PBS, 100 mM, pH 7.4). Compounds were dissolved in DMSO and diluted with PBS such that the final concentration of DMSO was 0.2%. The enzymatic reactions were commenced with the addition of 15 μL NADPH (final concentration: 2 mM) after a 10-min preincubation and incubated in a water bath open to the air at 37° C. Reactions were terminated at various time points (0, 15, 30, 60 min) by adding 135 μL acetonitrile (contain IS). The samples were centrifuged at 4000 rpm for 10 min to remove protein, the supernatant was stored at −80° C. until LC/MS/MS assays. Ketanserin (1 μM) was selected as the positive control, and reactions were terminated at various time points (0, 15, 30, 60 min) after incubation at 37° C. Both positive and negative control samples were included in each assay to ensure the integrity of the microsomal incubation system.
(§6) The concentrations of compounds in human or rat liver microsome incubations were plotted as a percentage of the relevant zero time point control for each reaction. The in vivo CLint were extrapolated (ref.: Naritomi, Y.; Terashita, S.; Kimura, S.; Suzuki, A.; Kagayama, A.; and Sugiyama, Y.; Prediction of human hepatic clearance from in vivo animal experiments and in vitro metabolic studies with liver microsomes from animals and humans. Drug Metab. Dispos., 2001, 29: 1316-1324).

A short description of series [2]: Pharmacokinetics after intravenous and oral administration in rats. In kind it is in vivo. To be noted: for clearance (CL) / AUC(0-t) / half-life / Vd: iv dosing, 1 mg/kg; for F: oral bioavailability; for AUC(0-t) / half-life / Vd: rat, plasma; for Vd: read-out: Vss. Here is the method:
The LC/MS/MS system used in the analysis consists of an Agilent 1200 Series vacuum degasser, binary pump, well-plate autosampler, thermostatted column compartment, the Agilent G6430 Triple Quadrupole Mass Spectrometer with an electrosprayionization (ESI) source. Quantitative analysis was carried out using MRM mode. The parameters for MRM transitions are in the Table A.
An Agilent XDB-C18, 2.1×30 mm, 3.5 μM column was used for the analysis. 5 μL of the samples were injected. Analysis condition: The mobile phase was 0.1% formic acid in water (A) and 0.1% formic acid in methanol (B). The flow rate was 0.4 mL/min. And the gradient of Mobile phase was in the Table B.
Alternatively, an Agilent 6330 series LC/MS/MS spectrometer equipped with G1312A binary pumps, a G1367A autosampler and a G1314C UV detector were used in the analysis. An ESI source was used on the LC/MS/MS spectrometer. The analysis was done in positive ion mode as appropriate and the MRM transition for each analyte was optimized using standard solution. A Capcell MP-C18 100×4.6 mm I.D., […] column (Phenomenex, Torrance, Calif., USA) was used during the analysis. The mobile phase was 5 mM ammonia acetate, 0.1% MeOH in water (A): 5 mM ammonia acetate, 0.1% MeOH in acetonitrile (B) (70:30, v/v). The flow rate was 0.6 mL/min. Column was maintained at ambient temperature. 20 μL of the samples were injected.
The compounds disclosed herein are assessed in pharmacokinetic studies in mice, rats, dogs or monkeys. The compounds are administered as a water solution, 2% HPMC+1% TWEEN®80 in water solution, 5% DMSO+5% solutol in saline, 4% MC suspension or capsule. For the intravenous administration, the animals are generally given at 1 or 2 mg/kg dose. For the oral (p.o.) dosing, mice and rats are generally given 5 or 10 mg/kg dose, and dogs and monkeys are generally given 10 mg/kg dose. The blood samples (0.3 mL) are drawn at 0.25, 0.5, 1.0, 2.0, 3.0, 4.0, 6.0, 8.0, 12 and 24 h time points or 0.083, 0.25, 0.5, 1.0, 2.0, 4.0, 6.0, 8.0 and 24 h time points and centrifuged at 3,000 or 4000 rpm for 2 to 10 min. The plasma solutions are collected, and stored at −20° C. or −70° C. until analyzed by LC/MS/MS as described above.

Series [3] in a line: Compound stability in human liver microsomes. The class given is in vitro ADME. The settings on record: for half-life: pH 7.4, 37° C., NADPH, read-out: Human T1/2; for CLint scaled: pH 7.4, in vivo CLint extrapolated. Here is the method:
as §1, §2, §3, §4, §5, §6

Each structure is given as a SMILES string.

For the compound `CCC1CN(c2ccc(C#N)nn2)CCC1Nc1nc(Nc2ccc3c(C)n(C)nc3c2)ncc1Cl` (stereo not shown) [Ex. 17, 6-(4-((5-chloro-2-((2,3-dimethyl-2H-indazol-6-yl)amino)pyrimidin-4-yl)amino)-3-ethylpiperidin-1-yl)pyridazine-3-carbonitrile], in series [1], the half-life worked out at 3.81 min and the CLint scaled (commonly a measure of how fast metabolising enzymes remove a compound, apart from limits set by blood flow) is 652 mL/min/kg. For the same compound, in series [2], the “clearance (CL)” value was 18.3 mL/min/kg; the F is 36.0%; the area under the curve AUC(0-t) (usually exposure summed from dosing to a finite time, without extrapolation to infinity) was found to be 911 ng·h/mL; the half-life was 40.2 min. Moreover, in series [2], the Vd stood at 0.45 L/kg. In addition, in series [3], the half-life came to 11.1 min and the CLint scaled was 156 mL/min/kg.
Regarding `CCC1CN(c2ccc(C#N)nn2)CCC1Nc1ccnc(Nc2cc(C)n(C)n2)n1` (stereo not shown) [Ex. 22, 6-(4-((2-((1,5-dimethyl-1H-pyrazol-3-yl)amino)pyrimidin-4-yl)amino)-3-ethylpiperidin-1-yl)pyridazine-3-carbonitrile], in series [1], the half-life worked out at 45.5 min and the CLint scaled was 54.6 mL/min/kg. Besides, in series [2], the “clearance (CL)” value was 33.2 mL/min/kg, the F was 62.7%, the AUC(0-t) was found to be 512 ng·h/mL and the half-life was 39.6 min. In addition, in series [2], the Vd was found to be 1.66 L/kg. Further, in series [3], the half-life was found to be 62.6 min and the intrinsic metabolic clearance (CLint scaled) is 27.8 mL/min/kg.
As for `CCC1CN(c2ccc(C#N)nn2)CCC1N(C)c1nc(Nc2ccc3c(C)n(C)nc3c2)ncc1Cl` (stereo not shown) [Ex. 19, 6-(4-((5-chloro-2-((2,3-dimethyl-2H-indazol-6-yl)amino)pyrimidin-4-yl)(methyl)amino)-3-ethylpiperidin-1-yl)pyridazine-3-carbonitrile], in series [1], the half-life was 6.55 min and the intrinsic metabolic clearance (CLint scaled) was 379 mL/min/kg. In series [2], the “clearance (CL)” value amounted to 43.8 mL/min/kg, the F came to 23.4%, the area under the curve AUC(0-t) came to 381 ng·h/mL and the half-life is 27 min. Further, in series [2], the Vd came out at 1.4 L/kg. In addition, in series [3], the half-life turned out to be 10.5 min and the CLint scaled was 165 mL/min/kg.
As for `CCC1CN(c2ccc(C#N)cn2)CCC1Nc1nc(Nc2cn(C)nc2C)ncc1Cl` (stereo not shown) [Ex. 16, 6-(4-((5-chloro-2-((1,3-dimethyl-1H-pyrazol-4-yl)amino)pyrimidin-4-yl)amino)-3-ethylpiperidin-1-yl)nicotinonitrile], in series [1], the half-life worked out at 6.85 min and the CLint scaled was 363 mL/min/kg. Besides, in series [2], the “clearance (CL)” value was 23.3 mL/min/kg, the F worked out at 60.9%, the AUC(0-t) stood at 722 ng·h/mL and the half-life is 39.6 min. For the same compound, the Vd in series [2] came to 0.96 L/kg. Besides, in series [3], the half-life was 3.94 min and the CLint scaled was 442 mL/min/kg.
As for `Cc1c2ccc(Nc3ncc(Cl)c(N(C)C4CCN(c5ccc(C#N)nn5)CC4)n3)cc2nn1C` [Ex. 24], the half-life in series [1] came to 7.12 min; in series [3], 6.4 min. In addition, the intrinsic clearance (CLint scaled) in series [1] was 349 mL/min/kg; in series [3], 272 mL/min/kg.
With `CCC1CN(c2ccc(C#N)cn2)CCC1Nc1nc(Nc2cc(C)n(C)n2)ncc1Cl` (stereo not shown) [Ex. 21, 6-(4-((5-chloro-2-((1,5-dimethyl-1H-pyrazol-3-yl)amino)pyrimidin-4-yl)amino)-3-ethylpiperidin-1-yl)nicotinonitrile], in series [1], the half-life came to 38.8 min and the intrinsic clearance (CLint scaled) is 64 mL/min/kg. Moreover, in series [2], the “clearance (CL)” value was 6.83 mL/min/kg, the F was 106.1%, the area under the curve AUC(0-t) amounted to 2320 ng·h/mL and the half-life was 93.6 min. The Vd in series [2] was determined as 0.81 L/kg. Moreover, in series [3], the half-life is 17.9 min and the CLint scaled is 97.3 mL/min/kg.
As for `CCC1CN(c2ccc(C#N)cn2)CCC1N(C)c1nc(Nc2cc(C)n(C)n2)ncc1Cl` (stereo not shown) [Ex. 18, 6-(4-((5-chloro-2-((1,5-dimethyl-1H-pyrazol-3-yl)amino)pyrimidin-4-yl) (methyl)amino)-3-ethylpiperidin-1-yl)nicotinonitrile], in series [1], the half-life turned out to be 37.6 min and the intrinsic clearance (CLint scaled) is 66.1 mL/min/kg. Also, in series [2], the “clearance (CL)” value was determined as 23.7 mL/min/kg, the F amounted to 66.8%, the AUC(0-t) is 663 ng·h/mL and the half-life is 109 min. For the same compound, in series [2], the Vd turned out to be 2.88 L/kg. Also, in series [3], the half-life came out at 22.9 min and the CLint scaled is 75.9 mL/min/kg.
Take `CCC1CN(c2ccc(C#N)cn2)CCC1Nc1nc(Nc2ccc3c(C)n(C)nc3c2)ncc1Cl` (stereo not shown) [Ex. 23]: in series [1], the half-life was 20.4 min and the CLint scaled was 121 mL/min/kg. Further, in series [2], the “clearance (CL)” value is 6.83 mL/min/kg, the F was 31.0%, the AUC(0-t) came to 2430 ng·h/mL and the half-life was 81 min. For the same compound, in series [2], the Vd came out at 0.84 L/kg. Also, in series [3], the half-life came to 15.5 min and the CLint scaled is 112 mL/min/kg.
As for `CCC1CN(c2ccc(C#N)cn2)CCC1N(C)c1nc(Nc2ccc3c(C)n(C)nc3c2)ncc1Cl` (stereo not shown) [Ex. 20, 6-(4-((5-chloro-2-((2,3-dimethyl-2H-indazol-6-yl)amino)pyrimidin-4-yl)(methyl)amino)-3-ethylpiperidin-1-yl)nicotinonitrile], in series [1], the half-life worked out at 15 min and the intrinsic metabolic clearance (CLint scaled) was 166 mL/min/kg. In series [2], the “clearance (CL)” value turned out to be 18.3 mL/min/kg, the F is 30.4%, the AUC(0-t) worked out at 881 ng·h/mL and the half-life was 90 min. In addition, the Vd in series [2] worked out at 1.9 L/kg. Further, in series [3], the half-life amounted to 26 min and the CLint scaled is 66.9 mL/min/kg.
